Where two headings read alike, the source gives them in different places.
Assay: Bidirectional Caco-2 permeability assay
Type: in vitro ADME
Conditions: human
Procedure: The bidirectional permeability of compounds across the Caco-2 cell monolayer was assessed. The Caco-2 model is a widely used in vitro model for small intestinal absorption and potential for efflux. Cell culture. Caco-2 cells were grown in DMEM supplemented with 10% fetal bovine serum (FBS), 1% Penicillin-Streptomycin and 1% MEMNEAA. The cells were incubated at 37° C., 5% CO2/95% air and saturated humidity. After reaching 80-90% confluency, the cells were gently detached with trypsin. Cells at passage 39 were seeded on the 24-well BD insert system at the density of 8×10^4 cells/cm^2 and cultured for 19 days with medium changed every 2-3 days. Measure the transepithelial electrical resistance (TEER) value of each well. The wells can be used only when their TEER values are greater than 600 Ohms/cm^2.
Transport assay. After removing the cell culture medium from the 24-well insert plate, the cells were rinsed with warm transport buffer. Appropriate dosing and receiving solutions were applied to the donor and receiver chambers to initiate the transport assay in apical to basolateral (A to B) or basolateral to apical (B to A) directions (500 and 1300 μL for apical and basolateral wells, respectively). Duplicate wells in each direction were used for the test compound and control compound. The plate was incubated in CO2 incubator at 37° C., with 5% CO2/95% air and saturated humidity without shaking. The sample after 10-minute incubation was used as the To sample, and the sample after 90-minute incubation was used as the T90 sample. To and T90 samples were collected from the donor and receiver side of each well at the designed timepoint, mixed with the transport buffer and acetonitrile/MeOH (1:1, v/v) and the internal standard for LC/MS/MS analysis. All samples were vortexed and centrifuged at 4000 rpm at 4° C. for 15 minutes, diluted with pure water and stored at 4° C. before bioanalysis by LC/MS/MS.
Sample analysis. The concentrations of test compounds and control compounds in Caco-2 cells were quantitatively determined by LC/MS/MS method after protein precipitation.
Calculations. The apparent permeability (Papp, cm/s), efflux ratio (ER) and recovery parameters were calculated for Caco-2 drug transport assay using the following equations: […]
where VR is the solution volume in the receiver chamber (0.4 mL on the apical side, 1.2 mL on the basolateral side); Area is the surface area for the insert membrane, i.e., 0.3 cm^2 for the area of the monolayer; Time is incubation time, expressed in seconds, i. e., 5400 s (90 min) for the current experiment; Co is the initial concentration of test compound or peak area ratio of control compounds in the donor chamber (M); VD is the volume in the donor chambers (0.4 mL on the apical side, 1.2 mL on the basolateral side); CD and CR are the final concentrations of test compounds or peak area ratio of control compounds in donor and receiver chambers, respectively.
Compounds with Papp<1.0 are classified as low permeability, Papp between 1-10 are classified as medium permeability, and Papp>10 are classified as high permeability. An efflux ratio (ER)>2 indicates the compounds are potential substrates for intestinal cell efflux transporters.

[1] = Caco-2 monolayer, apical to basolateral, 90-minute incubation, read-out: Papp, A-B
[2] = Caco-2 monolayer, basolateral to apical, 90-minute incubation, read-out: Papp, B-A
[3] = Caco-2 monolayer, ER>2 indicates potential efflux substrate, read-out: ER (efflux ratio)

| Compound | Papp A→B at 90 min (Caco-2) | Papp B→A at 90 min (Caco-2) | efflux ratio at 90 min (Caco-2) | Papp A→B at 90 min [1] | Papp B→A at 90 min [2] | efflux ratio at 90 min [3] |
| --- | --- | --- | --- | --- | --- | --- |
| CC(C)NC(=O)Nc1ncnn2c([C@]3(C#N)O[C@H](COC(=O)CC4CCCCC4)[C@@H](OC(=O)[C@@H](N)C(C)(C)C)[C@H]3O)ccc12 [Compound 4, (2R,3S,4R,5R)-5-cyano-2-((2-cyclohexylacetoxy)methyl)-4-hydroxy-5-(4-(3-isopropylureido)pyrrolo[2,1-f][1,2,4]triazin-7-yl)tetrahydrofuran-3-yl (S)-2-amino-3,3-dimethylbutanoate] | 2.5 ×10⁻⁶ cm/s | 3.48 ×10⁻⁶ cm/s | 1.37 |  |  |  |
| COC(C)(C)C(=O)Nc1ncnn2c([C@]3(C#N)O[C@H](COC(=O)Cc4ccccc4)[C@@H](OC(=O)[C@@H](N)C(C)(C)C)[C@H]3O)ccc12 [Compound 5, (2R,3S,4R,5R)-5-cyano-4-hydroxy-5-(4-(2-methoxy-2-methylpropanamido)pyrrolo[2,1-f][1,2,4]triazin-7-yl)-2-((2-phenylacetoxy)methyl)tetrahydrofuran-3-yl (S)-2-amino-3,3-dimethylbutanoate] |  |  |  | 17.7 ×10⁻⁶ cm/s | 16.5 ×10⁻⁶ cm/s | 0.93 |
| CCOC(C)(C)C(=O)Nc1ncnn2c([C@]3(C#N)O[C@H](COC(=O)Cc4ccccc4)[C@@H](OC(=O)[C@@H](N)C(C)(C)C)[C@H]3O)ccc12 [Compound 6, (2R,3S,4R,5R)-5-cyano-5-(4-(2-ethoxy-2-methylpropanamido)pyrrolo[2,1-f][1,2,4]triazin-7-yl)-4-hydroxy-2-((2-phenylacetoxy)methyl)tetrahydrofuran-3-yl (S)-2-amino-3,3-dimethylbutanoate] |  |  |  | 14 ×10⁻⁶ cm/s | 15.4 ×10⁻⁶ cm/s | 1.1 |
| CCOC(C)(C)C(=O)Nc1ncnn2c([C@]3(C#N)O[C@H](COC(=O)CC4CCCCC4)[C@@H](OC(=O)[C@@H](N)C(C)(C)C)[C@H]3O)ccc12 [Compound 7, (2R,3S,4R,5R)-5-cyano-2-((2-cyclohexylacetoxy)methyl)-5-(4-(2-ethoxy-2-methylpropanamido)pyrrolo[2,1-f][1,2,4]triazin-7-yl)-4-hydroxytetrahydrofuran-3-yl (S)-2-amino-3,3-dimethylbutanoate] | 7.82 ×10⁻⁶ cm/s | 8.41 ×10⁻⁶ cm/s | 1.07 |  |  |  |
| CCC(CC)C(=O)Nc1ncnn2c([C@]3(C#N)O[C@H](COC(=O)Cc4ccccc4)[C@@H](OC(=O)[C@@H](N)C(C)(C)C)[C@H]3O)ccc12 [Compound 8, (2R,3S,4R,5R)-5-cyano-5-(4-(2-ethylbutanamido)pyrrolo[2,1-f][1,2,4]triazin-7-yl)-4-hydroxy-2-((2-phenylacetoxy)methyl)tetrahydrofuran-3-yl (S)-2-amino-3,3-dimethylbutanoate] |  |  |  | 0.52 ×10⁻⁶ cm/s | 0.13 ×10⁻⁶ cm/s | 0.26 |
| CC[C@H](C)C(=O)Nc1ncnn2c([C@]3(C#N)O[C@H](COC(=O)Cc4ccccc4)[C@@H](OC(=O)[C@@H](N)C(C)(C)C)[C@H]3O)ccc12 [Compound 10, (2R,3S,4R,5R)-5-cyano-4-hydroxy-5-(4-((S)-2-methylbutanamido)pyrrolo[2,1-f][1,2,4]triazin-7-yl)-2-((2-phenylacetoxy)methyl)tetrahydrofuran-3-yl (S)-2-amino-3,3-dimethylbutanoate] |  |  |  | 0.59 ×10⁻⁶ cm/s | 0.1 ×10⁻⁶ cm/s | 0.17 |
| CC[C@@H](C)C(=O)Nc1ncnn2c([C@]3(C#N)O[C@H](COC(=O)CC4CCCCC4)[C@@H](OC(=O)[C@@H](N)C(C)(C)C)[C@H]3O)ccc12 [Compound 12, (2R,3S,4R,5R)-5-cyano-2-((2-cyclohexylacetoxy)methyl)-4-hydroxy-5-(4-((R)-2-methylbutanamido)pyrrolo[2,1-f][1,2,4]triazin-7-yl)tetrahydrofuran-3-yl (S)-2-amino-3,3-dimethylbutanoate] | 3.48 ×10⁻⁶ cm/s | 25.5 ×10⁻⁶ cm/s | 7.34 |  |  |  |
| CC[C@H](C)C(=O)Nc1ncnn2c([C@]3(C#N)O[C@H](COC(=O)CC4CCCCC4)[C@@H](OC(=O)[C@@H](N)C(C)(C)C)[C@H]3O)ccc12 [Compound 13, (2R,3S,4R,5R)-5-cyano-2-((2-cyclohexylacetoxy)methyl)-4-hydroxy-5-(4-((S)-2-methylbutanamido)pyrrolo[2,1-f][1,2,4]triazin-7-yl)tetrahydrofuran-3-yl (S)-2-amino-3,3-dimethylbutanoate] | 3.16 ×10⁻⁶ cm/s | 30.5 ×10⁻⁶ cm/s | 9.68 |  |  |  |
| CC(C)[C@@H](C)C(=O)Nc1ncnn2c([C@]3(C#N)O[C@H](COC(=O)CC4CCCCC4)[C@@H](OC(=O)[C@@H](N)C(C)(C)C)[C@H]3O)ccc12 [Compound 14, (2R,3S,4R,5R)-5-cyano-2-((2-cyclohexylacetoxy)methyl)-5-(4-((R)-2,3-dimethylbutanamido)pyrrolo[2,1-f][1,2,4]triazin-7-yl)-4-hydroxytetrahydrofuran-3-yl (S)-2-amino-3,3-dimethylbutanoate] | 1.96 ×10⁻⁶ cm/s | 1.38 ×10⁻⁶ cm/s | 0.7 |  |  |  |
| CC(C)[C@H](C)C(=O)Nc1ncnn2c([C@]3(C#N)O[C@H](COC(=O)CC4CCCCC4)[C@@H](OC(=O)[C@@H](N)C(C)(C)C)[C@H]3O)ccc12 [Compound 15, (2R,3S,4R,5R)-5-cyano-2-((2-cyclohexylacetoxy)methyl)-5-(4-((S)-2,3-dimethylbutanamido)pyrrolo[2,1-f][1,2,4]triazin-7-yl)-4-hydroxytetrahydrofuran-3-yl (S)-2-amino-3,3-dimethylbutanoate] | 1.93 ×10⁻⁶ cm/s | 1.76 ×10⁻⁶ cm/s | 0.91 |  |  |  |
| CC(C)[C@@H](C)C(=O)Nc1ncnn2c([C@]3(C#N)O[C@H](COC(=O)Cc4ccccc4)[C@@H](OC(=O)[C@@H](N)C(C)(C)C)[C@H]3O)ccc12 [Compound 21, (2R,3S,4R,5R)-5-cyano-5-(4-((R)-2,3-dimethylbutanamido)pyrrolo[2,1-f][1,2,4]triazin-7-yl)-4-hydroxy-2-((2-phenylacetoxy)methyl)tetrahydrofuran-3-yl (S)-2-amino-3,3-dimethylbutanoate] |  |  |  | 3.1 ×10⁻⁶ cm/s | 21 ×10⁻⁶ cm/s | 6.77 |
| CC(C)[C@H](C)C(=O)Nc1ncnn2c([C@]3(C#N)O[C@H](COC(=O)Cc4ccccc4)[C@@H](OC(=O)[C@@H](N)C(C)(C)C)[C@H]3O)ccc12 [Compound 22, (2R,3S,4R,5R)-5-cyano-5-(4-((S)-2,3-dimethylbutanamido)pyrrolo[2,1-f][1,2,4]triazin-7-yl)-4-hydroxy-2-((2-phenylacetoxy)methyl)tetrahydrofuran-3-yl (S)-2-amino-3,3-dimethylbutanoate] |  |  |  | 2.79 ×10⁻⁶ cm/s | 6.1 ×10⁻⁶ cm/s | 2.19 |
| CC(C)NC(=O)Nc1ncnn2c([C@]3(C#N)O[C@H](COC(=O)Cc4ccccc4)[C@@H](OC(=O)[C@@H](N)C(C)(C)C)[C@H]3O)ccc12 [Compound 29, (2R,3S,4R,5R)-5-cyano-4-hydroxy-5-(4-(3-isopropylureido)pyrrolo[2,1-f][1,2,4]triazin-7-yl)-2-((2-phenylacetoxy)methyl)tetrahydrofuran-3-yl (S)-2-amino-3,3-dimethylbutanoate] |  |  |  | 1.69 ×10⁻⁶ cm/s | 19.6 ×10⁻⁶ cm/s | 11.6 |
